The record followed here is US20250333421A1, “PYRIDAZINES OR 1,2,4-TRIAZINES SUBSTITUTED BY SPIROCYCLIC AMINES” (Janssen Pharmaceutica NV, priority 2021, published 2025).

The test system of one assay is MOLM14 cells. The assay can be described thus: Proliferation assay (spheroid assay) in MOLM14. Format: cell-based. The settings on record: Homo sapiens, MOLM-14, 192 h; MOLM14 (MLL-AF9), 8 days, confluence as measure of spheroid size; read-out: spheroid assay_OneTime MOLM14 IC50. As for the experimental part: (§1) The anti-proliferative effect of menin/MLL protein/protein interaction inhibitor test compounds was assessed in human leukemia cell lines. The cell line MOLM14 harbors a MLL translocation and expresses the MLL fusion proteins MLL-AF9, respectively, as well as the wildtype protein from the second allele. […] KO-52 was used as a control cell line containing two MLL (KMT2A) wildtype alleles in order to exclude compounds that display general cytotoxic effects.
MOLM14 cells were cultured in RPMI-1640 (Sigma Aldrich) supplemented with 10% heat-inactivated fetal bovine serum (HyClone), 2 mM L-glutamine (Sigma Aldrich) and 50 µg/ml gentamycin (Gibco). KO-52 cell lines were propagated in alpha-MEM (Sigma Aldrich) supplemented with 20% heat-inactivated fetal bovine serum (HyClone), 2 mM L-glutamine (Sigma Aldrich) and 50 µg/ml gentamycin (Gibco).
In order to assess the anti-proliferative effects, 200 MOLM14 cells, or 300 KO-52 cells were seeded in 200 μl media per well in 96-well round bottom, ultra-low attachment plates (Costar, catalogue number 7007). Cell seeding numbers were chosen based on growth curves to ensure linear growth throughout the experiment. Test compounds were added at different concentrations and the DMSO content was normalized to 0.3%. Cells were incubated for 8 days at 37° C. and 5% CO2. Spheroid like growth was measured in real-time by live-cell imaging (IncuCyteZOOM, Essenbio, 4× objective) acquiring images at day 8. Confluence (%) as a measure of spheroid size was determined using an integrated analysis tool.
In order to determine the effect of the test compounds over time, the confluence in each well as a measure of spheroid size, was calculated. Confluence of the highest dose of a reference compound was used as baseline for the LC (Low control) and the confluence of DMSO treated cells was used as 0% cytotoxicity (High Control, HC).
Absolute IC50 values were calculated as percent change in confluence as follows:
LC=Low Control: cells treated with e.g. 1 μM of the cytotoxic agent staurosporin, or e.g. cells treated with a high concentration of an alternative reference compound
GraphPad Prism (version 7.00) was used to calculate the IC50. Dose-response equation was used for the plot of % Effect vs Log10 compound concentration with a variable slope and fixing the maximum to 100% and the minimum to 0%.

In another assay the test system is KO-52 cells. Briefly: Proliferation assay (spheroid assay) in KO-52 control cell line. Format: cell-based. The settings on record: Homo sapiens, 192 h; KO-52 (MLL wildtype control), 8 days, confluence as measure of spheroid size; read-out: spheroid assay_OneTime KO-52 IC50. As for the experimental part: as §1
MOLM14 cells were cultured in RPMI-1640 (Sigma Aldrich) supplemented with 10% heat-inactivated fetal bovine serum (HyClone), 2 mM L-glutamine (Sigma Aldrich) and 50 µg/ml gentamycin (Gibco). […]
In order to assess the anti-proliferative effects, 200 MOLM14 cells, or 300 KO-52 cells were seeded in 200 μl media per well in 96-well round bottom, ultra-low attachment plates (Costar, catalogue number 7007). […] Spheroid like growth was measured in real-time by live-cell imaging (IncuCyteZOOM, Essenbio, 4× objective) acquiring images at day 8. Confluence (%) as a measure of spheroid size was determined using an integrated analysis tool.
In order to determine the effect of the test compounds over time, the confluence in each well as a measure of spheroid size, was calculated. […]
Absolute IC50 values were calculated as percent change in confluence as follows: […]

For another assay, the target named is T1, Menin/MLL (Homo sapiens, UniProt O00255, T541A).
T1 construct: Menin (a.a 1-610-6xhis tag)
T1 sequence (O00255 with tags, fused parts or gaps T541A): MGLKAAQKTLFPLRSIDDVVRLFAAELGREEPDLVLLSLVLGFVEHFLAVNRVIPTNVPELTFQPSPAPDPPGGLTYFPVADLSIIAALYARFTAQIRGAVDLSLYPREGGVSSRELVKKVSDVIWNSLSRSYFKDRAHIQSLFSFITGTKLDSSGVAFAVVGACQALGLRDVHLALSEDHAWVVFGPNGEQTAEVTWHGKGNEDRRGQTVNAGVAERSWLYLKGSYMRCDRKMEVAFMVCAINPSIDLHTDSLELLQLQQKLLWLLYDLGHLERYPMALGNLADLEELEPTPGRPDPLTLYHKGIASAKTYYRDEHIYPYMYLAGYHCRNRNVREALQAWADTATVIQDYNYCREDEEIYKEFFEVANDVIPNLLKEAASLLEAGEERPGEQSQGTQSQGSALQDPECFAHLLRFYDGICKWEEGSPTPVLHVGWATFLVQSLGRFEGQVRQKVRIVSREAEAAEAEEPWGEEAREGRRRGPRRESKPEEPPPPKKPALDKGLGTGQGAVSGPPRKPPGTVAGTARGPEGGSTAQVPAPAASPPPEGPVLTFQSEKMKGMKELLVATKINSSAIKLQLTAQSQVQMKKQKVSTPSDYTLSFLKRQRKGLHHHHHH
The assay can be described thus: Menin/MLL homogenous time-resolved fluorescence (HTRF) assay. Format: binding. The settings on record: 30 min incubation of test compound with terbium chelate-labeled menin; FITC-MBM1 peptide. As for the experimental part:
1) Menin/MLL homogenous time-resolved fluorescence (HTRF) assay
To an untreated, white 384-well microtiter plate was added 40 nL 200X test compound in DMSO and 4 μL 2X terbium chelate-labeled menin (vide infra for preparation) in assay buffer (40 mM Tris-HCl, pH 7.5, 50 mM NaCl, 1 mM DTT (dithiothreitol) and 0.05% Pluronic F-127). After incubation of test compound and terbium chelate-labeled menin for 30 min at ambient temperature, 4 μL 2X FITC-MBM1 peptide (FITC-β-alanine-SARWRFPARPGT-NH2 (SEQ ID NO: 2)) (“FITC” means fluorescein isothiocyanate) in assay buffer was added, the microtiter plate centrifuged at 1000 rpm for 1 min and the assay mixtures incubated for 15 min at ambient temperature. The relative amount of menin FITC--MBM1 complex present in an assay mixture is determined by measuring the homogenous time-resolved fluorescence (HTRF) of the terbium/FITC donor/acceptor fluorphore pair using an EnVision microplate reader (ex. 337 nm/terbium em. 490 nm/FITC em. 520 nm) at ambient temperature. The degree of fluorescence resonance energy transfer (the HTRF value) is expressed as the ratio of the fluorescence emission intensities of the FITC and terbium fluorophores (F^em 520 nm/F^em 490 nm). The final concentrations of reagents in the binding assay are 200 pM terbium chelate-labeled menin, 75 nM FITC-MBM1 peptide and 0.5% DMSO in assay buffer. Dose-response titrations of test compounds are conducted using an 11 point, four-fold serial dilution scheme, starting typically at 10 μM.
Compound potencies were determined by first calculating % inhibition at each compound concentration according to equation 1: […]
Where LC and HC are the HTRF values of the assay in the presence or absence of a saturating concentration of a compound that competes with FITC-MBM1 for binding to menin, and HTRF^compound is the measured HTRF value in the presence of the test compound. HC and LC HTRF values represent an average of at least 10 replicates per plate.
Where Bottom and Top are the lower and upper asymptotes of the dose-response curve, respectively, IC50 is the concentration of compound that yields 50% inhibition of signal and h is the Hill coefficient. IC50 values below 0.1 nM in the HTRF assay were reported as 0.1 nM in the Table below (detection limit).
Preparation of Terbium cryptate labeling of Menin: Menin (a.a 1-610-6xhis tag, 2.3 mg/mL in 20 mM Hepes (2-[4-(2-Hydroxyethyl)-1-piperazinyl]ethane sulfonic acid), 80 mM NaCl, 5 mM DTT (Dithiothreitol), pH 7.5) was labeled with terbium cryptate as follows. 200 μg of Menin was buffer exchanged into lx Hepes buffer. 6.67 μM Menin was incubated with 8-fold molar excess NHS (N-hydroxysuccinimide)-terbium cryptate for 40 minutes at room temperature. Half of the labeled protein was purified away from free label by running the reaction over a NAP5 column with elution buffer (0.1M Hepes, pH 7+0.1% BSA (bovine serum albumin)). The other half was eluted with 0.1 M phosphate buffered saline (PBS), pH7. 400 μl of eluent was collected for each, aliquoted and frozen at −80° C. The final concentration of terbium-labeled Menin protein was 115 μg/mL in Hepes buffer and 85 μg/mL in PBS buffer, respectively.
On the technique in general: In TR-FRET formats the signal depends on donor and acceptor labels being close together.

The structures appear in SMILES notation.

For the compound `CCN(C(=O)c1cc(F)ccc1Oc1nncnc1N1CCC2(C1)CN(C(CCCN(C)CCSC)C(C)C)C2)C(C)C` (single isomer, unassigned) [Compound 1], the IC50 amounted to 50 nM in the assay on MOLM14 cells and 11900 nM with KO-52 cells.

Regarding `CCN(C(=O)c1cc(F)ccc1Oc1nncnc1N1CCC2(C1)CN(C(CCCN(C)CCOC(F)(F)F)C(C)C)C2)C(C)C` (single isomer, unassigned) [Compound 2], the IC50 was 20 nM with MOLM14 cells, 0.376 nM on Menin/MLL and 14600 nM in the assay with KO-52 cells.

As a reminder, the IC50 is the point on the concentration scale where inhibition reaches its midpoint.
